The target in this experiment is Eukaryotic translation initiation factor 4E (Homo sapiens, UniProt P06730). Put plainly: Binding affinity to recombinant human 10His-tagged eIF4E expressed in Escherichia coli BL21 (DE3) cells assessed as dissociation constant by surface plasmon resonance analysis. A general note: SPR reads the build-up and loss of mass on a sensor chip optically.

Bridge positions count the residues as written; N and C are the ends. Peptide text beside a SMILES is read from it.

Eukaryotic translation initiation factor 4E, sequence (P06730 whole entry): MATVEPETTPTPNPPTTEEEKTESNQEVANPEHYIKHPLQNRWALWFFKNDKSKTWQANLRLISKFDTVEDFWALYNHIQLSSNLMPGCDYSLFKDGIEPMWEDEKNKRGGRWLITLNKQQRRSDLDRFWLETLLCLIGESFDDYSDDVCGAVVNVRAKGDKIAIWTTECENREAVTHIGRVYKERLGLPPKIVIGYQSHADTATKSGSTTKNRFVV

As for `CC[C@H](C)[C@H](NC(=O)[C@H](CCCNC(=N)N)NC(C)=O)C(=O)N[C@H](C(=O)N[C@@H](Cc1ccc(O)cc1)C(=O)N[C@@H](CC(=O)O)C(=O)N[C@@H](CCCNC(=N)N)C(=O)N[C@H]1CCC(=O)NCCCC[C@@H](C(=O)N[C@@H](CS)C(=O)N[C@@H](CCCNC(=N)N)C(N)=O)NC(=O)[C@H](CCSC)NC(=O)[C@H](CC(C)C)NC(=O)[C@H](Cc2ccccc2)NC1=O)[C@@H](C)CC` (Ac-RIIYDREFLMKCR-NH2; lactam 7-11), the koff (usually a measure of how fast the partners let go of each other) stood at 0.0069 s⁻¹.
Consider `CC[C@H](C)[C@H](NC(=O)[C@H](CCCNC(=N)N)NC(C)=O)C(=O)N[C@H](C(=O)N[C@@H](Cc1ccc(O)cc1)C(=O)N[C@@H](CC(=O)O)C(=O)N[C@@H](CCCNC(=N)N)C(=O)N[C@H]1CCCCNC(=O)CC[C@@H](C(=O)N[C@@H](CS)C(=O)N[C@@H](CCCNC(=N)N)C(N)=O)NC(=O)[C@H](CCSC)NC(=O)[C@H](CC(C)C)NC(=O)[C@H](Cc2ccccc2)NC1=O)[C@@H](C)CC` (Ac-RIIYDRKFLMECR-NH2; lactam 7-11), for which the koff is 0.0042 s⁻¹.
